Our source for the ED50 values is US5272150A, “Hydroxyalkylfuranyl derivatives” (Janssen Pharmaceutica N.V., priority 1992, dated 1993).

Molecules are shown by their SMILES.

The subject of this assay is compound 48/80-induced lethality in rats. As to the kind of experiment: Protection of rats from compound 48/80-induced lethality. The following applies: Rattus norvegicus, subcutaneous administration (sc). It is filed as in vivo. The source says: Int. Pharmacodyn. Ther. 251, 39-51 (1981).
The term (sc) signifies subcutaneous administration.

The ED50 is the dose at which the effect has come halfway, by size or by number of responders. Consider `CCn1nnn(CCN2CCC(Nc3nc4ccccc4n3Cc3ccc(CO)o3)CC2)c1=O` [3.13], for which the ED50 amounted to 0.04 mg/kg.
For the compound `OCc1ccc(Cn2c(CC3CCN(CCNc4ncccn4)CC3)nc3ccccc32)o1` [1.23], the ED50 was 0.02 mg/kg.
For `OCc1ccc(Cn2c(NC3CCNCC3)nc3ccccc32)o1` [Co. No. 3.11, 5-[[2-(4-piperidinylamino)-1H-benzimidazol-1-yl]methyl]-2-furanamethanol], the 50% effect level (ED50) was put at a dose of 0.04 mg/kg.
In the case of `O=[N+]([O-])c1cnccc1NCCN1CCCC(Nc2nc3ccccc3n2Cc2ccc(CO)o2)CC1` (stereo not drawn) [Co. No. 4.14, 5-[[2-[[hexahydro-1-[2-[(3-nitro-4-pyridinyl)amino]ethyl]-1H-azepin-4-yl]amino]-1H-benzimidazol-1-yl]methyl]-2-furanmethanol hemihydrate], the ED50 amounted to 0.04 mg/kg.
For `Cc1nc2n(c(=O)c1CCN1CCC(Nc3nc4ccccc4n3Cc3ccc(CO)o3)CC1)CCS2` [3.15] the value was 0.04 mg/kg; for `OCc1ccc(Cn2c(CC3CCN(CCNc4cnccn4)CC3)nc3ccccc32)o1` [1.22], 0.04 mg/kg; for `COc1ccc(CCN2CCC(Cc3nc4ccccc4n3Cc3ccc(CO)o3)CC2)cc1` [1.11], 0.04 mg/kg.
Compound `CC(C)NC(=O)CCN1CCC(Nc2nc3ccccc3n2Cc2ccc(CO)o2)CC1` [Co. No. 3.12] had an ED50 of 0.04 mg/kg.
`Cc1nc2ccccn2c(=O)c1CCN1CCC(Cc2nc3ccccc3n2Cc2ccc(CO)o2)CC1` [1.09] yielded an ED50 of 0.02 mg/kg.
For `Cc1nc2sccn2c(=O)c1CCN1CCC(Cc2nc3ccccc3n2Cc2ccc(CO)o2)CC1` [1.08] the value was 0.01 mg/kg; for `Cc1nc2ccccn2c(=O)c1CCN1CCC(Nc2nc3cccnc3n2Cc2ccc(CO)o2)CC1` [2.10], 0.04 mg/kg.
For `CN1CCC(Nc2nc3ccccc3n2Cc2ccc(CO)o2)CC1` [3.03] the value was 0.02 mg/kg.
For `Cn1cccc1C(=O)NCCN1CCC(Cc2nc3ccccc3n2Cc2ccc(CO)o2)CC1` [1.15] the value was 0.04 mg/kg; for `CC(C)NC(=O)CCN1CCC(Cc2nc3ccccc3n2Cc2ccc(CO)o2)CC1` [1.12], 0.01 mg/kg; for `CN1CCC(Nc2nc3cncnc3n2Cc2ccc(CO)o2)CC1` [5.04], 0.02 mg/kg.
As for `Cc1nc2ccccn2c(=O)c1CCN1CCC(Nc2nc3ccccc3n2Cc2ccc(CO)o2)CC1` [3.17], it took a dose of 0.04 mg/kg to reach the 50% effect level (ED50).
As for `Cc1nc2sccn2c(=O)c1CCN1CCC(Nc2nc3cccnc3n2Cc2ccc(CO)o2)CC1` [2.09], the ED50 stood at 0.01 mg/kg. This ED50 lies about 4-fold lower than the previous one.
For `Cc1nc2sccn2c(=O)c1CCN1CCC(Nc2nc3cncnc3n2Cc2ccc(CO)o2)CC1` [5.03] the value was 0.04 mg/kg.
In the case of `CN1CCC(Cc2nc3ccccc3n2Cc2ccc(CO)o2)CC1` [Co. No. 1.17, 5-[[2-[(1-methyl-4-piperidinyl)methyl]-1H-benzimidazol-1-yl]methyl]-2-furanmethanol], the 50% effective dose (ED50) was determined as 0.04 mg/kg.
In turn, `O=C(O)C(=O)O.O=C(O)C(=O)O.O=C(O)C(=O)O.OCc1ccc(Cn2c(CC3CCN(CCNc4cccnn4)CC3)nc3ccccc32)o1` [Co. No. 1.24, 5-[[2-[[1-[2-(3-pyridazinylamino)ethyl]-4-piperidinyl]methyl]-1H-benzimidazol-1-yl]methyl]-2-furanmethanol ethanedioate (1:3)] registered an ED50 of 0.02 mg/kg.
In turn, `CCn1nnn(CCN2CCC(Cc3nc4ccccc4n3Cc3ccc(CO)o3)CC2)c1=O` [1.07] had an ED50 of 0.04 mg/kg. Against the preceding compound, the ED50 is about 2-fold higher.
For `O=c1[nH]c2ccccc2n1CCN1CCC(Nc2nc3ccccc3n2Cc2ccc(CO)o2)CC1` [3.19] the value was 0.02 mg/kg; for `Cc1cc2nc(C)c(CCN3CCC(Nc4nc5cccnc5n4Cc4ccc(CO)o4)CC3)c(=O)n2o1` [2.32], 0.02 mg/kg; for `OCc1ccc(Cn2c(CC3CCN(CCc4ccccn4)CC3)nc3cccnc32)o1` [Co. No. 2.35, 5-[[2-[[1-[2-(2-pyridinyl)ethyl]-4-piperidinyl]methyl]-3H-imidazo[4,5-b]-pyridin-3-yl]methyl]-2-furanmethanol (E)-2-butenedioate(2:3)], 0.02 mg/kg.
Take `Cc1nc2n(c(=O)c1CCN1CCC(Nc3nc4ccccc4n3Cc3ccc(CO)o3)CC1)CCCS2` [Co. No. 3.31]: the ED50 worked out at 0.04 mg/kg.
For `N#CCN1CCC(Nc2nc3ccccc3n2Cc2ccc(CO)o2)CC1` [Co. No. 3.22, 4-[[1-[[5-(hydroxymethyl)-2-furanyl]-methyl]-1H-benzimidazol-2-yl]amino]-1-piperidineacetonitrile] the value was 0.04 mg/kg.
For `O=c1ccc(NCCN2CCC(Cc3nc4ccccc4n3Cc3ccc(CO)o3)CC2)n[nH]1` [Co. No. 1.25, 6-[[2-[4-[[1-[[5-(hydroxymethyl)-2-furanyl]methyl]-1H-benzimidazol-2-yl]methyl]-1-piperidinyl]ethyl]amino]-3(2H)-pyridazinone ethanedioate (2:5)] the value was 0.01 mg/kg.
For `O=[N+]([O-])c1cnccc1NCCN1CCC(Nc2nc3ccccc3n2Cc2ccc(CO)o2)CC1` [Co. No. 3.26, 5-[[2-[[1-[2-[(3-nitro-4-pyridinyl)amino]-ethyl]-4-piperidinyl]amino]-1H-benzimidazol-1-yl]methyl]-2-furanmethanol] the value was 0.04 mg/kg; for `Cc1nc2n(c(=O)c1CCN1CCC(Cc3nc4ccccc4n3Cc3ccc(CO)o3)CC1)CCS2` [1.10], 0.01 mg/kg.
The compound `Cc1nc2n(c(=O)c1CCN1CCC(Cc3nc4cccnc4n3Cc3ccc(CO)o3)CC1)CCCS2` [2.33] gave an ED50 of 0.04 mg/kg.
